According to patent US12044683B2, “Methods and compositions concerning intestinal permeability” (THE REGENTS OF THE UNIVERSITY OF CALIFORNIA, priority 2018, dated 2024):
“And” between values parts separate entries of the source, which are not always exact repeats. Equal entries are not always repeated. Marks after values point to notes of the source that are not given here.

Assays:
[1] = rats; Brown 1980; cited from earlier work
[2] = test system: fruit flies; conditions: fruit fly bodies viewed under a microscope after being given the dye; cited from earlier work
[3] = Blue #1 measured by LC/MS in blood/plasma after enteral administration (intestinal permeability test); type: in vivo, human; parameters: Blue #1 in blood sample, 2 H / Blue #1 in blood sample, 8 H: unit not given here; conditions: for Blue #1 in blood sample, 2 H: 2 H after dose; for Blue #1 in blood sample, 8 H: 8 H after dose
Protocol: High dose: 0.5 mg/kg—e.g, 35 mg in a 70 kg adult, administered as 35 ml of diluted food coloring solution (16 mg/mL diluted 1:16) was used. Five blood samples were drawn per subject (5 ml/draw): 0 hour-prior to dose, 1 hour, 2 hours, 4 hours, 8 hours. Four subjects enrolled. […]
Test subjects with clinically determined sepsis were given enteral Blue #1 at a designated time prior to scheduled blood draw. […] Sepsis was defined by the Surviving Sepsis Campaign [Crit Care Med. 2013; 41(2):580] (presence, probable or documented, of infection together with systemic manifestations such as fever, tachycardia, leukocytosis, hypotension, organ dysfunction, or decreased tissue perfusion). […] The medium dose was: 0.05 mg/kg—e.g. 3.5 mg in a 70 kg adult, administered as 35 mL of diluted food coloring solution (0.1 mg/mL), The low dose was: 0.005 mg/kg—e.g. 0.35 mg in a 70 kg, administered as 35 ml of diluted food coloring solution (0.01 mg/ml). Five blood draws per subject (5 ml/draw): 0 hour—prior to dose, 1 hour, 2 hours, 4 hours, and 8 hours, through clinically indicated, previously placed IV catheters. 14 subjects were used in this study.
Plasma concentration of Blue-1 is shown in relation to time in two patients (10-26-16) and (11-14-16) diagnosed with sepsis. Plasma preparation was done as shown in Example 5C below. Bzi-Arg_pNA was used as a STD. The data obtained is shown in Tables 2 and 3 below and in FIG. 3. The standard graph is FIG. 4.
Subjects were asked to drink a blue food coloring solution, (GATORADE for example) at 0.5 mg/kg (35 ml for a 70 kg human subject). Then a blood sample was drawn (e.g. 5 ml) at five different time periods for each subject: immediately before the drink (time zero), 1 hour, 2 hour, 4 hour and 8 hours after the drink. Subjects in Group 2 also had some of their abdominal fluid from the paracentesis saved to analyze for the presence of the dye, Plasma was prepared according to the method in the following example.
1) one volume of plasma was mixed with 3 volumes of (1:3→IPA:CAN+0.1% TFA);
2) after spin-down, 1800 μl of supernatant was evaporated (for example, by a Speed-Vac)
4) 10 μl of the re-suspended residue was injected onto a mass spectrophotometer for each analysis which corresponds to 25 μl of “pure plasma”. Quantitative analysis of the peak corresponding to the mass of Blue #1 was performed to see how much of the dye had been absorbed. Bzl-Arg_pNA is an example of a standard that worked with this assay.

[4] = Solubility in resuspension solvents (NMP, water); type: physicochemical; conditions: NMP and water (50% NMP in water used for resuspension)
[5] = studies supporting FDA approval for foods, drugs and cosmetics; cited from earlier work
[6] = Non-septic 1, ICU, no vasopressor, MELD 40, Eating
[7] = Non-septic 2, ICU, no vasopressor, MELD 33, Eating
[8] = Non-septic 3, ICU, no vasopressor, MELD 17, Eating
[9] = Non-septic 4, ICU/Pressor, NE 0.4, MELD 36, Eating
[10] = Normal 1, Normal, no vasopressor, MELD 6, NPO
[11] = Normal 2, Normal, no vasopressor, MELD 6, NPO
[12] = Normal 3, Normal, no vasopressor, MELD 6, NPO
[13] = Normal 4, Normal, no vasopressor, MELD 6, NPO
[14] = Septic 1, ICU/Pressor, NE 0.12, MELD 34, NPO × meds
[15] = Septic 3 (first line so labelled, r15), ICU/Pressor, NE 0.12, MELD 39, NPO × meds
[16] = Septic 3 (second line so labelled, r17), ICU/Pressor, Vaso 4, NE 0.09, PhE 25, MELD 35, NPO × meds
[17] = Septic 4, ICU/Pressor, NE 0.25, MELD 40, NPO × meds
[18] = Septic 5, ICU/Pressor, NE 0.02, MELD 23, Eating
[19] = Septic 6, ICU/Pressor, Vaso 2, MELD 43, NPO × meds
[20] = sepsis patient of Table 2, 1 hr after ingestion
[21] = sepsis patient of Table 2, 2 hr after ingestion
[22] = sepsis patient of Table 2, 4 hr after ingestion
[23] = sepsis patient of Table 2, 8 hr after ingestion
[24] = sepsis patient of Table 3, 1 hr after ingestion
[25] = sepsis patient of Table 3, 2 hr after ingestion
[26] = sepsis patient of Table 3, 4 hr after ingestion
[27] = sepsis patient of Table 3, 8 hr after ingestion

Q: Which “Share of the dye absorbed into the blood from the intestine” value [1] does the source give for `CCN(Cc1cccc(S(=O)(=O)[O-])c1)c1ccc(C(=C2C=CC(=[N+](CC)Cc3cccc(S(=O)(=O)[O-])c3)C=C2)c2ccccc2S(=O)(=O)[O-])cc1.[Na+].[Na+]` [Blue #1, disodium;2-[[4-[ethyl-[(3-sulfonatophenyl)methyl]amino]phenyl]-[4-[ethyl-[(3-sulfonatophenyl)methyl]azaniumlidene]cyclohexa-2,5-dien-1-ylidene]methyl]benzenesulfonate] here?
A: Its value is “more than 0.02%”.

Q: What about the “Absorption by fruit flies” value [2] of the same molecule?
A: Its value is “not to be absorbed”.

Q: What about the “Blue #1 in blood sample, 2 H” value [3, 6] of the same molecule?
A: Its value is 0.5.

Q: And the “Blue #1 in blood sample, 8 H” value [3, 6]?
A: Its value is 0.15.

Q: What about the “Blue #1 in blood sample, 2 H” value [3, 7] of the same molecule?
A: Its value is less than 0.05.

Q: And the “Blue #1 in blood sample, 8 H” value [3, 7]?
A: The value was less than 0.05.

Q: What about the “Blue #1 in blood sample, 2 H” value [3, 8] of the same molecule?
A: Its value is less than 0.05.

Q: What about the “Blue #1 in blood sample, 8 H” value [3, 8] of the same molecule?
A: Its value is less than 0.05.

Q: And the “Blue #1 in blood sample, 2 H” value [3, 9]?
A: Its value is less than 0.05.

Q: What about the “Blue #1 in blood sample, 8 H” value [3, 9] of the same molecule?
A: The value was less than 0.05.

Q: What about the “Blue #1 in blood sample, 2 H” value [3, 10] of the same molecule?
A: The value was less than 0.05.

Q: And the “Blue #1 in blood sample, 8 H” value [3, 10]?
A: The value was less than 0.05.

Q: And the “Blue #1 in blood sample, 2 H” value [3, 11]?
A: The value was less than 0.05.

Q: And the “Blue #1 in blood sample, 8 H” value [3, 11]?
A: Its value is less than 0.05.

Q: What about the “Blue #1 in blood sample, 2 H” value [3, 12] of the same molecule?
A: The value was less than 0.05.

Q: What about the “Blue #1 in blood sample, 8 H” value [3, 12] of the same molecule?
A: The value was less than 0.05.

Q: And the “Blue #1 in blood sample, 2 H” value [3, 13]?
A: The value was less than 0.05.

Q: What about the “Blue #1 in blood sample, 8 H” value [3, 13] of the same molecule?
A: Its value is less than 0.05.

Q: What about the “Blue #1 in blood sample, 2 H” value [3, 14] of the same molecule?
A: Its value is 0.5.

Q: What about the “Blue #1 in blood sample, 8 H” value [3, 14] of the same molecule?
A: Its value is 0.3.

Q: What about the “Blue #1 in blood sample, 2 H” value [3, 15] of the same molecule?
A: Its value is 0.7.

Q: And the “Blue #1 in blood sample, 8 H” value [3, 15]?
A: The value was 0.5.

Q: And the “Blue #1 in blood sample, 2 H” value [3, 16]?
A: The value was less than 0.05.

Q: And the “Blue #1 in blood sample, 8 H” value [3, 16]?
A: Its value is less than 0.05.

Q: What about the “Blue #1 in blood sample, 2 H” value [3, 17] of the same molecule?
A: The value was 2.5.

Q: What about the “Blue #1 in blood sample, 8 H” value [3, 17] of the same molecule?
A: The value was 4.6**.

Q: And the “Blue #1 in blood sample, 2 H” value [3, 18]?
A: Its value is 0.4.

Q: And the “Blue #1 in blood sample, 8 H” value [3, 18]?
A: Its value is 0.05.

Q: And the “Blue #1 in blood sample, 2 H” value [3, 19]?
A: Its value is 1.

Q: What about the “Blue #1 in blood sample, 8 H” value [3, 19] of the same molecule?
A: Its value is 1.5.

Q: What about the “Detectability of Blue #1 by LC/MS (FIG. 2, upper graph)” value ([3]; non-septic patient) of the same molecule?
A: The value was “not detectable”.

Q: What about the “Absorption into blood in normal subjects” value ([3]; normal subjects (four enrolled), high dose 0.5 mg/kg oral, up to 8 hours later) of the same molecule?
A: Its value is “wasn't any detectable absorption”.

Q: What about the “Plasma concentration of Blue-1, Average” value [3, 20] of the same molecule?
A: Its value is 1.41 nM (nM).

Q: What about the “Plasma concentration of Blue-1, replicates A, B, C” value (shortened to “Plasma concentration … B, C”) [3, 20] of the same molecule?
A: Its value is 1.81 fMoles/μl (nM) and 1.13 fMoles/μl (nM) and 1.29 fMoles/μl (nM).

Q: What about the “Plasma concentration of Blue-1, Average” value [3, 21] of the same molecule?
A: Its value is 2.59 nM (nM).

Q: What about the “Plasma concentration … B, C” value [3, 21] of the same molecule?
A: The value was 2.17 fMoles/μl (nM) and 2.89 fMoles/μl (nM) and 2.72 fMoles/μl (nM).

Q: And the “Plasma concentration of Blue-1, Average” value [3, 22]?
A: Its value is 2.03 nM (nM).

Q: What about the “Plasma concentration … B, C” value [3, 22] of the same molecule?
A: Its value is 2.30 fMoles/μl (nM) and 1.75 fMoles/μl (nM) and 2.05 fMoles/μl (nM).

Q: What about the “Plasma concentration of Blue-1, Average” value [3, 23] of the same molecule?
A: The value was 2.18 nM (nM).

Q: What about the “Plasma concentration … B, C” value [3, 23] of the same molecule?
A: The value was 2.44 fMoles/μl (nM) and 2.04 fMoles/μl (nM) and 2.05 fMoles/μl (nM).

Q: And the “Plasma concentration of Blue-1, Average” value [3, 24]?
A: Its value is 1.17 nM (nM).

Q: What about the “Plasma concentration … B, C” value [3, 24] of the same molecule?
A: Its value is 1.09 fMoles/μl (nM) (2×) and 1.33 fMoles/μl (nM).

Q: What about the “Plasma concentration of Blue-1, Average” value [3, 25] of the same molecule?
A: Its value is 2.29 nM (nM).

Q: And the “Plasma concentration … B, C” value [3, 25]?
A: The value was 2.40 fMoles/μl (nM) and 2.28 fMoles/μl (nM) and 2.18 fMoles/μl (nM).

Q: What about the “Plasma concentration of Blue-1, Average” value [3, 26] of the same molecule?
A: The value was 2.67 nM (nM).

Q: What about the “Plasma concentration … B, C” value [3, 26] of the same molecule?
A: The value was 2.53 fMoles/μl (nM) and 2.29 fMoles/μl (nM) and 3.19 fMoles/μl (nM).

Q: And the “Plasma concentration of Blue-1, Average” value [3, 27]?
A: The value was 3.37 nM (nM).

Q: And the “Plasma concentration … B, C” value [3, 27]?
A: The value was 3.50 fMoles/μl (nM) and 3.04 fMoles/μl (nM) and 358 fMoles/μl (nM).

Q: What about the “Detectability of Blue #1 by LC/MS (FIG. 2, lower graph)” value ([3]; septic patient) of the same molecule?
A: The value was “detectable”.

Q: And the Solubility [4]?
A: Its Solubility is “soluble in both”.

Q: What about the Acceptable daily intake [5] of the same molecule?
A: Its Acceptable daily intake is 12 mg/kg body weight/day.
